According to patent US12185743B2, “Processes for transglucosylation of steviol glycosides” (Beijing Gingko-Group Biological Technology Co., Ltd., priority 2019, dated 2025):

Assay: Dissolution of RebD and RebM
Type: physicochemical
Conditions: without maltooligosaccharides

Row | Compound | dissolution
1 | C=C1C[C@@]23CC[C@H]4[C@@](C)(CCC[C@@]4(C)C(=O)O[C@@H]4O[C@H](CO)[C@@H](O)[C@H](O)[C@H]4O[C@@H]4O[C@H](CO)[C@@H](O)[C@H](O)[C@H]4O)[C@@H]2CC[C@]1(O[C@@H]1O[C@H](CO)[C@@H](O)[C@H](O[C@@H]2O[C@H](CO)[C@@H](O)[C@H](O)[C@H]2O)[C@H]1O[C@@H]1O[C@H](CO)[C@@H](O)[C@H](O)[C@H]1O)C3 [RebD, Rebaudioside D] | do not dissolve completely
2 | C=C1C[C@@]23CC[C@H]4[C@@](C)(CCC[C@@]4(C)C(=O)O[C@@H]4O[C@H](CO)[C@@H](O)[C@H](O[C@@H]5O[C@H](CO)[C@@H](O)[C@H](O)[C@H]5O)[C@H]4O[C@@H]4O[C@H](CO)[C@@H](O)[C@H](O)[C@H]4O)[C@@H]2CC[C@]1(O[C@@H]1O[C@H](CO)[C@@H](O)[C@H](O[C@@H]2O[C@H](CO)[C@@H](O)[C@H](O)[C@H]2O)[C@H]1O[C@@H]1O[C@H](CO)[C@@H](O)[C@H](O)[C@H]1O)C3 [RebM, Rebaudioside M] | do not dissolve completely
